Test results from PubChem BioAssay AID1963851 (Molecular Pharmacology Branch, DTP, NCI, 2024).
Values joined by “and” are separate entries in the source; they are usually repeats but may differ in a detail not shown here. Equal values may be shown once.

Test system: 188146-221-R-J1-PDC complex spheroid viability
Assay: Anticancer human tumor 188146-221-R-J1-PDC patient-derived colon adenocarcinoma cell line growth inhibition [POLQ]
Settings: for viability, T/C: stronger effect = lower value
Description: Multicellular complex tumor spheroid response to Polymerase (POL) inhibitors (novobiocin, ART-558, RP6685) in combination with a variety of drugs and investigational agents in selected tumor cell lines
The POL inhibitors (novobiocin, ART-558, and RP6685) were evaluated both individually and in combination with standard of care and investigational anticancer small molecules within a complex spheroid model of solid tumors. . Complex spheroids include a stromal component modeled by human endothelial cells (HUVEC) and fibroblasts modeled by human mesenchymal stem cells (MSCs). The concentration ranges selected for each drug and investigational agent were based upon clinically achievable concentrations if the clinical Cmax of the agent was known.
Compounds. The drugs and investigational agents: novobiocin (NSC847541), ART-558 (NSC835418), RP-6685 (NSC848927), peposertib (NSC802822), ceralasertib (NSC780249), elimusertib (NSC800525), camonsertib (NSC841442), AZD-1390 (NSC803789), olaparib (NSC753686), talazoparib (NSC767125), rucaparib (NSC756644), sotorasib (NSC818433), MRTX-1133 (NSC836407), SN-38 (NSC673596), topotecan (NSC609699), epotoside (NSC141540), doxorubicin (NSC123127), gemcitabine (NSC613327), 5-fluorouracil (NSC19893), paclitaxel (NSC125973), vemurafenib (NSC761431), MSA-2 (NSC828583), SN-011 (NSC837082), adavosertib (NSC754352), prexasertib (NSC758257), carboplatin (NSC241240) and oxaliplatin (NSC266046), were obtained from the National Cancer Institute (NCI) Developmental Therapeutics Program Chemical Repository (21). The FDA-approved anticancer drug set is available from the Developmental Therapeutics Program at https://dtp.cancer.gov/organization/dscb/obtaining/. […] The stock solutions were prepared in dimethyl sulfoxide (DMSO, Sigma-Aldrich, St. Louis, MO, cat. D2650), except for the platinum compounds which were prepared in saline (Quality Biological, Gaithersburg, MD, cat. 114-055-101), at 800-fold the tested concentration and stored at -70 degrees C prior to their use. All drugs and investigational agents were tested over a range starting from a high concentration at or near the clinical Cmax and decreasing in half-log increments. If the clinical Cmax for an agent had not been determined, the highest concentration tested was 10 microM, except for SN-38, which was tested at a high concentration of 1 microM.
Cell Culture. All cells were maintained in an incubator at 37 degrees C and 5% CO2 with 95% humidity. The PDC lines were cultured according to standard operating procedures established by the NCI PDMR (https://pdmr.cancer.gov). Table 3 of the manuscript, lists the cell lines along with the number of the three cell types plated to form the mct-spheroids and media for tumor cell growth. After thawing, all PDC lines, except 997537-175-T-J1-PDC and 415267-285-R-J2-PDC, were cultured in Matrigel-coated flasks prepared with a working solution of 1X Ham's F-12 nutrient mix, without supplementation (Thermo Fisher Scientific, cat. 11765054), 100 U/mL penicillin-streptomycin (Thermo Fisher Scientific, cat. 15140122), and 2.5% Matrigel (Corning Inc., Corning, NY, cat. 354248) for the first three passages. The two PDC lines 997537-175-T-J1-PDC and 415267-285-R-J2-PDC were cultured on uncoated flasks. The 857933-349-R-J2-PDC line was cultured in 6C/Colon 1B media containing advanced DMEM/F-12 (Thermo Fisher Scientific, cat. 12634028), 10 mM HEPES (Thermo Fisher Scientific, cat. 15630080), 1X GlutaMAX supplement (Thermo Fisher Scientific, cat. 35050061), 0.1 mg/mL primocin (InvivoGen, San Diego, CA, cat. ant-pm-2), 10% defined fetal bovine serum, heat inactivated (HyClone Laboratories Inc., Logan, UT, cat. SH30070.03HI), 50% L-WRN conditioned media (ATCC, cat. CRL-3276), 1.25 mM N-Acetyl-L-cysteine (Sigma-Aldrich, cat. A9165), 10 mM nicotinamide (Sigma-Aldrich, cat. N0636), 1X B-27 supplement (Thermo Fisher Scientific, cat. 17504044), 1X N-2 supplement (Thermo Fisher Scientific, cat. […]
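Further: spheroids exposed to compounds for seven days.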
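Wherever viability, T/C is given: 100% = DMSO vehicle control viability.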

Question: Which viability, T/C (compound 0.0316 µM) does the source give for CCc1cc2c(N3CCc4c(cc(Cn5ccnc5)cc4-c4cn(C)nc4C(F)(F)F)C3=O)cc(C)nc2c(OC)n1 here?
Answer: 114% and 97.3% and 106%

Question: What about the viability, T/C (compound 0.1 µM) of the same molecule?
Answer: 114% and 95.4% and 108%

Question: What about the viability, T/C (compound 0.316 µM) of the same molecule?
Answer: 95.9% and 83.1% and 98.9%

Question: And the viability, T/C (compound 1 µM)?
Answer: 85.5% and 80.4% and 92.5%

Question: What about the viability, T/C (compound 3.16 µM) of the same molecule?
Answer: 71% and 77.1% and 66.7%

Question: What about the viability, T/C (compound 10 µM) of the same molecule?
Answer: 41.5% and 47.2% and 47.6%

Question: What about the IC50 (curve of compound) of the same molecule?
Answer: 7260 nM and 9620 nM and 8600 nM

Question: How did the viability, T/C (compound 0.0316 µM) turn out when CCc1cc2c(N3CCc4c(cc(Cn5ccnc5)cc4-c4cn(C)nc4C(F)(F)F)C3=O)ccnc2c(OC)n1 was run?
Answer: 103% and 102% and 97.4%

Question: And the viability, T/C (compound 0.1 µM)?
Answer: 100% and 84.5% and 101%

Question: And the viability, T/C (compound 0.316 µM)?
Answer: 100% and 99.4% and 92.2%

Question: What about the viability, T/C (compound 1 µM) of the same molecule?
Answer: 92.7% and 93.4% and 98.2%

Question: And the viability, T/C (compound 3.16 µM)?
Answer: 69.5% and 74% and 71.6%

Question: What about the viability, T/C (compound 10 µM) of the same molecule?
Answer: 48.1% and 54.2% and 57.5%

Question: And the IC50 (curve of compound)?
Answer: 9010 nM and > 10000 nM

Question: What does the source list for CC1COCCN1c1cc(C2(O)CC3CCC(C2)O3)c2cnn(-c3ccn[nH]3)c2n1 (stereo not given)?
Answer: viability, T/C (compound 0.0316 µM): 92% and 93.4% and 87%; viability, T/C (compound 0.1 µM): 84.8% and 75% and 73.3%; viability, T/C (compound 0.316 µM): 44.9% and 50.6% and 53.1%; viability, T/C (compound 1 µM): 28.2% and 28.1% and 26%; viability, T/C (compound 3.16 µM): 21.8% and 18.4% and 19.3%; viability, T/C (compound 10 µM): 6.59% and 6.67% and 8.27%; IC50 (curve of compound): 321 nM and 329 nM and 342 nM

Question: Which results are given for CC[C@@]1(O)C(=O)OCc2c1cc1n(c2=O)Cc2cc3c(CN(C)C)c(O)ccc3nc2-1?
Answer: viability, T/C (compound 0.000316 µM): 101% and 91.4% and 104%; viability, T/C (compound 0.001 µM): 99.7% and 100% and 110%; viability, T/C (compound 0.00316 µM): 87.8% and 92.4% and 88.8%; viability, T/C (compound 0.01 µM): 103% (2×) and 107%; viability, T/C (compound 0.0316 µM): 101% and 92.7% and 97.3%; viability, T/C (compound 0.1 µM): 71.1% and 63.3% and 63.1%; IC50 (curve of compound): > 100 nM

Question: Which results are given for C=CCn1c(=O)c2cnc(Nc3ccc(N4CCN(C)CC4)cc3)nc2n1-c1cccc(C(C)(C)O)n1 + Nc1ccc(C#CCN(C(=O)Cc2ncc(C(F)(F)F)cc2C(F)(F)F)c2ccc(F)cc2)nn1?
Answer: IC50 (curve of first compound, second compound 0.0316 µM): > 1000 nM; IC50 (curve of first compound, second compound 0.1 µM): > 1000 nM; IC50 (curve of first compound, second compound 0.316 µM): > 1000 nM; IC50 (curve of first compound, second compound 1 µM): > 1000 nM; IC50 (curve of first compound, second compound 3.16 µM): > 1000 nM; IC50 (curve of first compound, second compound 10 µM): 788 nM; viability, T/C (second compound 0.0316 µM, first compound 0.00316 µM): 112%; viability, T/C (second compound 0.0316 µM, first compound 0.01 µM): 100%; viability, T/C (second compound 0.0316 µM, first compound 0.0316 µM): 98.6%; viability, T/C (second compound 0.0316 µM, first compound 0.1 µM): 100%; viability, T/C (second compound 0.0316 µM, first compound 0.316 µM): 102%; viability, T/C (second compound 0.0316 µM, first compound 1 µM): 55.6%; viability, T/C (second compound 0.1 µM, first compound 0.00316 µM): 111%; viability, T/C (second compound 0.1 µM, first compound 0.01 µM): 97%; viability, T/C (second compound 0.1 µM, first compound 0.0316 µM): 119%; viability, T/C (second compound 0.1 µM, first compound 0.1 µM): 117%; viability, T/C (second compound 0.1 µM, first compound 0.316 µM): 109%; viability, T/C (second compound 0.1 µM, first compound 1 µM): 57.1%; viability, T/C (second compound 0.316 µM, first compound 0.00316 µM): 115%; viability, T/C (second compound 0.316 µM, first compound 0.01 µM): 104%; viability, T/C (second compound 0.316 µM, first compound 0.0316 µM): 115%; viability, T/C (second compound 0.316 µM, first compound 0.1 µM): 111%; viability, T/C (second compound 0.316 µM, first compound 0.316 µM): 84.6%; viability, T/C (second compound 0.316 µM, first compound 1 µM): 50.6%; viability, T/C (second compound 1 µM, first compound 0.00316 µM): 119%; viability, T/C (second compound 1 µM, first compound 0.01 µM): 106%; viability, T/C (second compound 1 µM, first compound 0.0316 µM): 100%; viability, T/C (second compound 1 µM, first compound 0.1 µM): 122%; viability, T/C (second compound 1 µM, first compound 0.316 µM): 101%; viability, T/C (second compound 1 µM, first compound 1 µM): 55.9%; viability, T/C (second compound 3.16 µM, first compound 0.00316 µM): 107%; viability, T/C (second compound 3.16 µM, first compound 0.01 µM): 110%; viability, T/C (second compound 3.16 µM, first compound 0.0316 µM): 114%; viability, T/C (second compound 3.16 µM, first compound 0.1 µM): 110%; viability, T/C (second compound 3.16 µM, first compound 0.316 µM): 108%; viability, T/C (second compound 3.16 µM, first compound 1 µM): 52.1%; viability, T/C (second compound 10 µM, first compound 0.00316 µM): 114%; viability, T/C (second compound 10 µM, first compound 0.01 µM): 114%; viability, T/C (second compound 10 µM, first compound 0.0316 µM): 104%; viability, T/C (second compound 10 µM, first compound 0.1 µM): 110%; viability, T/C (second compound 10 µM, first compound 0.316 µM): 98.4%; viability, T/C (second compound 10 µM, first compound 1 µM): 37.2%
